PMC9971447 (Asian Pacific Journal of Cancer Prevention : APJCP, 2022)
Where two headings read alike, the source gives them in different places.

How the values were obtained:
[1] = tested on: SW620; assay: SRB antiproliferation assay, SW620 colorectal cancer cells; type: cell-based; conditions: read-out: Cytotoxicity (as of %Control) IC50 value, SW620, 72 h incubations, mean ± SD, n = 3
[2] = tested on: A375.2S cell line; conditions: read-out: antiproliferative IC50, A375.2S cell line; ref AlKhalil et al., 2020; cited from earlier work
[3] = tested on: HCT116; assay: SRB antiproliferation assay, HCT116 colorectal cancer cells; type: cell-based
[4] = tested on: T47D; conditions: read-out: antiproliferative IC50, T47D cell line; ref AlKhalil et al., 2020; cited from earlier work
[5] = tested on: SW620; conditions: read-out: IC50 value in SW620 cells; ref Mamdooh et al., 2019; cited from earlier work
[6] = tested on: RAW 264.7 mouse macrophage cell line (nitric oxide synthase readout); assay: LPS-triggered NO; type: cell-based; conditions: for antiinflammation potency compared with indomethacin: LPS-triggered inflammation in RAW macrophages, in words
[7] = tested on: MCF7; assay: SRB antiproliferation assay, MCF7 breast cancer cells; type: cell-based
[8] = tested on: T47D; assay: SRB antiproliferation assay, T47D breast cancer cells; type: cell-based
[9] = tested on: SW480; assay: SRB antiproliferation assay, SW480 colorectal cancer cells; type: cell-based
[10] = tested on: PANC1; assay: SRB antiproliferation assay, PANC1 pancreatic cells; type: cell-based
[11] = tested on: colorectal cancer cell lines; conditions: ref Mamdooh et al., 2019; cited from earlier work
[12] = tested on: CACO2; assay: SRB antiproliferation assay, CACO2 colorectal cancer cells; conditions: read-out: Cytotoxicity (as of %Control) IC50 value, CACO2, 72 h incubations, mean ± SD, n = 3
[13] = tested on: HT29; assay: SRB antiproliferation assay, HT29 colorectal cancer cells; type: cell-based; conditions: read-out: Cytotoxicity (as of %Control) IC50 value, HT29, 72 h incubations, mean ± SD, n = 3
[14] = Mus musculus, RAW264.7, 24 h, read-out: NOS- IC50 value, LPS 20 μg/mL, RAW264.7, 24h incubations, mean ± SD, n = 3
[15] = read-out: NOS- IC50 value, LPS 20 μg/mL, RAW264.7, 24h incubations, mean ± SD, n = 3
[16] = Homo sapiens, MCF7, 72 h, read-out: Cytotoxicity (as of %Control) IC50 value, MCF7, SRB, 72 h incubations, mean ± SD, n = 3
[17] = read-out: Cytotoxicity (as of %Control) IC50 value, T47D, SRB, 72 h incubations, mean ± SD, n = 3
[18] = Homo sapiens, SW480, 72 h, read-out: Cytotoxicity (as of %Control) IC50 value, SW480, SRB, 72 h incubations, mean ± SD, n = 3
[19] = Homo sapiens, PANC-1, 72 h, read-out: Cytotoxicity (as of %Control) IC50 value, PANC 1, SRB, 72 h incubations, mean ± SD, n = 3
[20] = read-out: Cytotoxicity (as of %Control) IC50 value, MCF7, SRB, 72 h incubations, mean ± SD, n = 3
[21] = Homo sapiens, T47D, 72 h, read-out: Cytotoxicity (as of %Control) IC50 value, T47D, SRB, 72 h incubations, mean ± SD, n = 3
[22] = read-out: Cytotoxicity (as of %Control) IC50 value, SW480, SRB, 72 h incubations, mean ± SD, n = 3

## CC(C)c1c(C(=O)Nc2ccccc2)c(-c2ccccc2)c(-c2ccc(F)cc2)n1CC[C@@H](O)C[C@@H](O)CC(=O)O [Atorvastatin]
[1]
  IC50: < 50 µM
[2]
  IC50: 0.0156 µM
[3]; read-out: Cytotoxicity (as of %Control) IC50 value, HCT116, SRB, 72 h incubations, mean ± SD, n = 3
  IC50: < 50 µM
[4]
  IC50: 34.6 µM
[5]
  IC50: 0.0018 µM
[6]
  antiinflammation potency compared with indomethacin: substantially more potent
[6]; [14]
  IC50: 42 µM
[6]; [15]
  IC50: 42.8 ± 7.17 µM

## COCc1c(C(C)C)nc(C(C)C)c(/C=C/[C@@H](O)C[C@@H](O)CC(=O)O)c1-c1ccc(F)cc1 [Cerivastatin]
[7]; [16]
  IC50: < 50 µM
[8]; [17]
  IC50: < 50 µM
[3]; Homo sapiens, HCT-116, 72 h, read-out: Cytotoxicity (as of %Control) IC50 value, HCT116, SRB, 72 h incubations, mean ± SD, n = 3
  IC50: 2.9 µM
[9]; [18]
  IC50: 6 µM
[10]; [19]
  IC50: < 50 µM
[6]; LPS 20 μg/mL, RAW264.7, 24h incubations, mean ± SD, n = 3
  NOS- IC50 value: lack and noninhibitory

## COc1cccc2c1C(=O)c1c(O)c3c(c(O)c1C2=O)C[C@@](O)(C(=O)CO)C[C@@H]3O[C@H]1C[C@H](N)[C@H](O)[C@H](C)O1 [Doxorubicin]
[11]
  activity against CRC cell lines (in words): nanomolar

## CC(C)n1c(/C=C/C(O)CC(O)CC(=O)O)c(-c2ccc(F)cc2)c2ccccc21 (stereo not drawn) [Fluvastatin]
[7]; [20]
  IC50: > 50 µM
[8]; [17]
  IC50: > 50 µM
[10]; [19]
  IC50: > 50 µM
[6]
  antiinflammation potency compared with indomethacin: equipotency to indomethacin
[6]; [14]
  IC50: 110 ± 20.6 µM

## COc1ccc2c(c1)c(CC(=O)O)c(C)n2C(=O)c1ccc(Cl)cc1 [Indomethacin]
[6]; [14]
  IC50: 87 µM
[6]; [15]
  IC50: 86.5 ± 10.5 µM

## CC[C@H](C)C(=O)O[C@H]1C[C@@H](C)C=C2C=C[C@H](C)[C@H](CC[C@@H]3C[C@@H](O)CC(=O)O3)[C@H]21 [Lovastatin]
[12]
  IC50: > 100 µM
[6]
  antiinflammation potency compared with indomethacin: substantially more potent
[6]; [14]
  IC50: 42 µM
[6]; [15]
  IC50: 41.6 ± 4.34 µM

## CC[C@H](C)C(=O)O[C@H]1CCC=C2C=C[C@H](C)[C@H](CC[C@@H]3C[C@@H](O)CC(=O)O3)[C@H]21 [Mevastatin]
[7]; [20]
  IC50: > 50 µM
[8]; [21]
  IC50: > 50 µM
[9]; [18]
  IC50: < 50 µM
[9]; [22]
  IC50: 36 µM
[10]; [19]
  IC50: > 50 µM
[6]
  antiinflammation potency compared with indomethacin: inferior antiinflammation potency to indomethacin
[6]; [14]
  IC50: 142 ± 17.2 µM

## O=C(O)C[C@H](O)C[C@H](O)/C=C/c1c(C2CC2)nc2ccccc2c1-c1ccc(F)cc1 [Pitavastatin]
[7]; [16]
  IC50: > 50 µM
[8]; [17]
  IC50: > 50 µM
[10]; read-out: Cytotoxicity (as of %Control) IC50 value, PANC 1, SRB, 72 h incubations, mean ± SD, n = 3
  IC50: > 50 µM
[6]
  antiinflammation potency compared with indomethacin: equipotency to indomethacin
[6]; [14]
  IC50: 98.7 ± 1.87 µM

## CC[C@H](C)C(=O)O[C@H]1C[C@H](O)C=C2C=C[C@H](C)[C@H](CC[C@@H](O)C[C@@H](O)CC(=O)O)[C@H]21 [Pravastatin]
[10]; [19]
  IC50: > 50 µM
[6]
  antiinflammation potency compared with indomethacin: inferior antiinflammation potency to indomethacin
[6]; [14]
  IC50: 204 ± 14.1 µM
[13]
  IC50: < 50 µM

## CC(C)c1nc(N(C)S(C)(=O)=O)nc(-c2ccc(F)cc2)c1/C=C/[C@@H](O)C[C@@H](O)CC(=O)O [Rosuvastatin]
[1]
  IC50: 15 µM
[7]; [20]
  IC50: 1.5 µM
[8]; [21]
  IC50: > 50 µM
[9]; [22]
  IC50: 23 µM
[10]; [19]
  IC50: > 50 µM
[6]
  antiinflammation potency compared with indomethacin: equipotency to indomethacin
[6]; [14]
  IC50: 74.2 ± 13.1 µM

## CCC(C)(C)C(=O)O[C@H]1C[C@@H](C)C=C2C=C[C@H](C)[C@H](CC[C@@H]3C[C@@H](O)CC(=O)O3)[C@H]21 [Simvastatin]
[6]
  antiinflammation potency compared with indomethacin: substantially more potent
[6]; [14]
  IC50: 42 µM
[6]; [15]
  IC50: 42.5 ± 6.41 µM

## O=C(O)c1cn(C2CC2)c2cc(N3CCNCC3)c(F)cc2c1=O [ciprofloxacin]
[11]
  activity against CRC cell lines (in words): did not show any activity

## CO/N=C1\CN(c2nc3c(cc2F)c(=O)c(C(=O)O)cn3C2CC2)CC1CN (stereo not drawn) [gemifloxacin]
[11]
  activity against CRC cell lines (in words): active
